Reference: patent EP3884963A1, “NAPROXEN/DEXAMETHASONE-BASED NANOPARTICLES” (Consejo Superior de Investigaciones Científicas (CSIC), priority 2020, dated 2021)

Tested on: RAW264.7 macrophages
Assay: In vitro viability assay of NPs (AlamarBlue)
Assay type: cell-based, murine
Conditions: RAW264.7, 24 h, all concentrations tested (NPs 0.011-0.25 mg/ml; free Dx at the concentration encapsulated); % respect to the control
Procedure: The RAW264.7 (murine macrophages) cell line was purchased from Sigma-Aldrich. RAW264.7 cells are an in vitro model useful to test the potential anti-inflammatory activity of new drugs. Cells were maintained over permissive conditions in high-glucose Dulbecco's modified Eagle's medium (DMEM; Sigma, Saint Louis, MO, USA) supplemented with 10% fetal bovine serum (FBS; Gibco, BRL), 2% L-Glutamine (Sigma, Saint Louis, MO, USA) and Penicillin-G (Sigma, Saint Louis, MO, USA) at 37 °C in a humidified incubator with 10% CO2.
2 x 10^5 live cells/mL (100 µL per well) were seeded in a 96 well-plate under permissive conditions. After 24 h, cells were exposed to different concentrations of free Dx and Dx-loaded or unloaded NSAID-based NPs suspension (0.25, 0.125, 0.09, 0.045, 0.023 and, 0.011 mg/ml) and cell viability was determined after 24 h of incubation with NPs. AlamarBlue (Invitrogen) was used to determine cell viability. Absorbance at 570 nm was measured by a Multi-Detection Microplate Reader Synergy HT (BioTek Instruments; Vermont, USA). The treatments were done in replicates (n = 8). Results of the experiments were expressed as percentage of relative cell viability (% respect to the control).

Q: How did the cell viability turn out when `C[C@@H]1C[C@H]2[C@@H]3CCC4=CC(=O)C=C[C@]4(C)[C@@]3(F)[C@@H](O)C[C@]2(C)[C@@]1(O)C(=O)CO` [free Dx, Dexamethasone] was run?
A: higher than 70%
